According to patent publication US6737383B1, “Herbicidal oxadiazolidines” (priority 1999, dated 2004):

Legend:
wild oat = experiment: Test E wild oat; format: in vivo, Avena fatua; conditions: Preemergence; for Plant response rating, Wild oat: 0 to 100 scale where 0 is no effect and 100 is complete control
green foxtail = experiment: Test E green foxtail; format: in vivo, Setaria viridis; conditions: Preemergence
winter barley = experiment: Test E winter barley; format: in vivo, Hordeum vulgare; conditions: Preemergence; for Plant response rating, Barley (winter): 0 to 100 scale where 0 is no effect and 100 is complete control
bedstraw = experiment: Test B pre/postemergence bedstraw; format: in vivo, Galium aparine
Method in brief: (§1)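 Herbicidal effect was estimated by eye on a ten-point control scale after plants spent twelve to sixteen days in a greenhouse following soil or foliar treatment. Foliar sprays targeted plants at one to four leaves; all doses were formulated in a non-phytotoxic solvent with surfactant.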

Italian ryegrass = experiment: Test E Italian ryegrass; format: in vivo, Lolium multiflorum; conditions: Preemergence; for Plant response rating, I. Ryegrass: 0 to 100 scale where 0 is no effect and 100 is complete control
winter wheat [1] = experiment: Test E winter wheat; format: in vivo, Triticum aestivum; conditions: Postemergence, 0 to 100 scale
Protocol: […] All plant species were grown using normal greenhouse practices. Crop and weed species include annual bluegrass (Poa annua), blackgrass (Alopecurus myosuroides), black nightshade (Solanum nigra), chickweed (Stellaria media), common poppy (Papaver rhoeas), deadnettle (Lamium amplexicaule), downy brome (Bromus tectorum), field violet (Viola arvensis), galium (Galium aparine), green foxtail (Setaria viridis), Italian ryegrass (Lolium multiflorum), jointed goatgrass (Aegilops cylindrica), kochia (Kochia scoparia), lambsquarters (Chenopodium album), littleseed canarygrass (Phalaris minor), rape (Brassica napus), redroot pigweed (Amaranthus retroflexus), Russian thistle (Salsola kali), scentless chamomile (Matricaria inodora), spring barley (Hordeum vulgare), sugar beet (Beta vulgaris), sunflower (Helianthus annuus), ivyleaf speedwell (Veronica hederaefolia), spring wheat (Triticum aestivum), winter wheat (Triticum aestivum), wild buckwheat (Polygonum convolvulus), wild mustard (Sinapis arvensis), wild oat (Avena fatua), windgrass (Apera spica-venti) and winter barley (Hordeum vulgare).
Treated plants and untreated controls were maintained in a greenhouse for approximately 21 to 28 days, after which all treated plants were compared to untreated controls and visually evaluated. […] A dash response (-) means no test result.

winter wheat [2] = experiment: Test E winter wheat; format: in vivo, Triticum aestivum; conditions: Preemergence; for Plant response rating, Wheat (winter): 0 to 100 scale where 0 is no effect and 100 is complete control
pigweed = experiment: Test B pre/postemergence pigweed; format: in vivo, Amaranthus retroflexus
Method in brief: as §1

blackgrass = experiment: Test E blackgrass; format: in vivo, Alopecurus myosuroides; conditions: Preemergence; for Plant response rating, Blackgrass: 0 to 100 scale where 0 is no effect and 100 is complete control
[3] = Postemergence, Rate 125 g/ha, scale of 0 to 10 where 0 is no effect and 10 is complete control
[4] = Preemergence, Rate 62 g/ha, scale of 0 to 10 where 0 is no effect and 10 is complete control
[5] = Preemergence, Rate 125 g/ha, 0 is no effect, 10 is complete control
[6] = Preemergence, Rate 250 g/ha, scale 0 to 10, 0 is no effect, 10 is complete control
[7] = Preemergence, Rate 500 g/ha, scale 0 to 10 (0 no effect, 10 complete control)
[8] = Rate 62 g/ha, Postemergence, scale of 0 to 10 where 0 is no effect and 10 is complete control
[9] = Rate 250 g/ha, Postemergence, scale 0 to 10, 0 is no effect, 10 is complete control

CC(C)N(C(=O)n1oc(=O)n([C@@H](C)c2ccccc2)c1=O)c1ccccc1 [Compound 173]
Wild oat plant response rating (0 to 100 scale) (wild oat; Rate 250 g/ha): 50
Plant response rating, Wild oat (wild oat; Rate 500 g/ha): 45
Plant response rating, Wild oat (wild oat; Rate 1000 g/ha): 50
Green foxtail plant response rating (0 to 100 scale) (green foxtail; Rate 250 g/ha): 85
Plant response rating, Green foxtail (green foxtail; Rate 1000 g/ha, 0 to 100 scale where 0 is no effect and 100 is complete control): 100
Barley (winter) plant response rating (0 to 100 scale) (winter barley; Rate 250 g/ha): 30
Plant response rating, Barley (winter) (winter barley; Rate 500 g/ha): 40
Plant response rating, Barley (winter) (winter barley; Rate 1000 g/ha): 40
Bedstraw plant response rating (bedstraw; [3]): 0
Bedstraw plant response rating (bedstraw; [4]): 0
Bedstraw plant response rating (0 to 10 scale) (bedstraw; [5]): 0
Bedstraw plant response rating (bedstraw; [6]): 0
Bedstraw plant response rating (bedstraw; [7]): 0
Bedstraw plant response rating (bedstraw; [8]): 0
Plant response rating, Bedstraw (bedstraw; [9]): 4
I. Ryegrass plant response rating (0 to 100 scale) (Italian ryegrass; Rate 250 g/ha): 35
Plant response rating, I. Ryegrass (Italian ryegrass; Rate 500 g/ha): 45
Plant response rating, I. Ryegrass (Italian ryegrass; Rate 1000 g/ha): 98
Plant response rating, Wheat (winter) (winter wheat [1]; Rate 1000 g/ha, 0 is no effect and 100 is complete control): 60
Plant response rating, Wheat (winter) (winter wheat [1]; Rate 500 g/ha, 0 is no effect, 100 is complete control): 40
Wheat (winter) plant response rating (0 to 100 scale) (winter wheat [2]; Rate 250 g/ha): 20
Plant response rating, Wheat (winter) (winter wheat [2]; Rate 500 g/ha): 30
Plant response rating, Wheat (winter) (winter wheat [2]; Rate 1000 g/ha): 50
Redroot pigweed plant response rating (pigweed; [3]): 0
Redroot pigweed plant response rating (pigweed; [4]): 0
Redroot pigweed plant response rating (0 to 10 scale) (pigweed; [5]): 0
Redroot pigweed plant response rating (pigweed; [6]): 0
Redroot pigweed plant response rating (pigweed; [7]): 5
Redroot pigweed plant response rating (pigweed; [8]): 0
Plant response rating, Redroot pigweed (pigweed; [9]): 0
Redroot pigweed plant response rating (pigweed; Rate 500 g/ha, Postemergence, scale 0 to 10): 0
Blackgrass plant response rating (0 to 100 scale) (blackgrass; Rate 250 g/ha): 50
Plant response rating, Blackgrass (blackgrass; Rate 500 g/ha): 70
Plant response rating, Blackgrass (blackgrass; Rate 1000 g/ha): 98
